Measured values as given in publication PMC11017388 (ACS Medicinal Chemistry Letters, 2024).
Like-named read-outs stand apart in the source and are kept apart here.

Legend:
[1] = biological target: T1, PKa (Homo sapiens, UniProt P03952); details: competitive, reversible inhibitor; cited from earlier work
[2] = biological target: T2, FXIIa (Homo sapiens, UniProt P00748); assay: Isolated enzyme potency against FXIIa, preincubation time course; details: for IC50: read-out: FXIIa IC50; for Inhibition of FXIIa activity (in words): time course experiments
T2 sequence (P00748 373-615 limits assumed): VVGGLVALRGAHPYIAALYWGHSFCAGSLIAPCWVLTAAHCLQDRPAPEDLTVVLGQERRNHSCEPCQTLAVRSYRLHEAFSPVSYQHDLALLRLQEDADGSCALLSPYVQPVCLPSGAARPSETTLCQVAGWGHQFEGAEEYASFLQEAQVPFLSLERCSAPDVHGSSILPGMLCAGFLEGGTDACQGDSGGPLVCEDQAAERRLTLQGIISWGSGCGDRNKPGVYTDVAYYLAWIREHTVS

[3] = Stability in DMSO and aqueous media (LCMS observation); format: physicochemical; details: protodeborylation observed by LCMS
[4] = biological target: plasma kallikrein (PKa) (Homo sapiens, UniProt P03952); assay: Isolated enzyme potency against PKa, IC50 after enzyme/inhibitor preincubation time course; details: for Inhibition of PKa (in words): preincubation time course
[5] = NMR stability study of pinacol boronate in PBS buffer; format: physicochemical; details: pH7.4 phosphate buffer (D2O)
Method: Molecular docking experiments were conducted to visualize the potential binding mode of 20. However, it soon became apparent that the pinacol boronate group was too large to fit into the Ser195 subpocket. Having previously experienced hydrolysis of the pinacol boronate during purification, model substrate 17b was used to study the stability of the pinacol boronate in PBS buffer by NMR (see Supporting Information Figure S1).

[6] = biological target: Plasmin (Homo sapiens, UniProt P00747); assay: Time-dependent potency determination against plasmin
[7] = biological target: FXIa (Homo sapiens, UniProt P03951); assay: Time-dependent potency determination against FXIa; format: biochemical
Description: S5: Pharmacology: Material and Methods :

[8] = biological target: Thrombin (Homo sapiens, UniProt P00734); assay: Time-dependent potency determination against thrombin
[9] = biological target: T1, PKa; assay: Compound dissociation assay (jump dilution); details: 62.5-fold dilution after 10 min preincubation; monitored over 600 s with fluorogenic substrate
[10] = tested on: Trypsin; assay: Time-dependent potency determination against trypsin; details: read-out: Trypsin IC50
[11] = biological target: phosophodiesterase 4 (PDE4) enzyme; parameters: method as in PMID 19303290; details: read-out: potency; cited from earlier work
[12] = parameters: method as in PMID 34282650; details: 150 mg daily dose, clinical studies; cited from earlier work
[13] = read-out: PKa IC50, 5 min preincubation
[14] = read-out: PKa IC50, 60 min preincubation
[15] = Plasmin IC50, 1 min preincubation
[16] = Plasmin IC50, 10 min preincubation
[17] = Plasmin IC50, 60 min preincubation
[18] = read-out: Thrombin IC50, 10 min preincubation
[19] = read-out: Thrombin IC50, 60 min preincubation
[20] = read-out: PKa IC50, 1 min preincubation
[21] = read-out: PKa IC50, 10 min preincubation

Chain of FXIa (P03951 388-625 limits assumed): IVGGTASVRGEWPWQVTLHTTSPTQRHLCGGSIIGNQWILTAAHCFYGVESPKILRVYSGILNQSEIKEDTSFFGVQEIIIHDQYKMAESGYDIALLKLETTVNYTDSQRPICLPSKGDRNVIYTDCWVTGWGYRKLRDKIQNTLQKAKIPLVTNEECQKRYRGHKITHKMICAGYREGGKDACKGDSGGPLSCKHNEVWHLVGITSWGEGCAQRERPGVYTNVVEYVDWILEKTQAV
Chain of FXIa (P03951 19-387 partner limits assumed): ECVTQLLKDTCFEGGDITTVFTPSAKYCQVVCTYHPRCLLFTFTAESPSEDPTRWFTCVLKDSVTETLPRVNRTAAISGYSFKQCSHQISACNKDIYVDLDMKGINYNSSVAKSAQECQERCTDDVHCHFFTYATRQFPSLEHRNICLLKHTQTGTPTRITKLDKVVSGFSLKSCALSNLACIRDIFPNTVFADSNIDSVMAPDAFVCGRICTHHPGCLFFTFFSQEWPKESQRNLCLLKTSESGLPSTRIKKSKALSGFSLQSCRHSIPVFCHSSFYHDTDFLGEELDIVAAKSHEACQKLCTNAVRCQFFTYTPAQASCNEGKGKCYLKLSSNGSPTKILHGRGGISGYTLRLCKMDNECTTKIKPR
Chain of Plasmin (P00747 581-810 limits assumed, species assumed): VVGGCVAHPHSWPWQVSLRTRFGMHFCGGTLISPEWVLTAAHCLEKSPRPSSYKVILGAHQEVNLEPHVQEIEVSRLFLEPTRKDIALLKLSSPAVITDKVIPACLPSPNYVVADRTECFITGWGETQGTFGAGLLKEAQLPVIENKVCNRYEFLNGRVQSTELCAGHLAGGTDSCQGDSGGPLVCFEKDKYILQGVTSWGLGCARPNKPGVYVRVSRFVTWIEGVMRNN
Chain of Plasmin (P00747 97-580 partner limits assumed, species assumed): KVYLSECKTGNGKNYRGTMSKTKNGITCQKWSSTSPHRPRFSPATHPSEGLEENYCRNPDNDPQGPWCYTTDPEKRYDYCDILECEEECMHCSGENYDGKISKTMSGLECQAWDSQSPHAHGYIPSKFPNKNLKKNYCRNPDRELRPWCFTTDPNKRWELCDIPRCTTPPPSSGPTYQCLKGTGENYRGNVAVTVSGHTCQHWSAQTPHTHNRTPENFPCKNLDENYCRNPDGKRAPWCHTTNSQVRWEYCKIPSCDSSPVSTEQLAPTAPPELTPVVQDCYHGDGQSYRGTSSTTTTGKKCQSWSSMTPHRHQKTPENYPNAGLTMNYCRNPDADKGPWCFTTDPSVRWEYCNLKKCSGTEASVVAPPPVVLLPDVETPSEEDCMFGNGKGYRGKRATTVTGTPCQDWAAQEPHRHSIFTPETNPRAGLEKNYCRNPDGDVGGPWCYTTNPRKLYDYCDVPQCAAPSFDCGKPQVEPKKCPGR
T1 sequence (P03952 391-638 limits assumed): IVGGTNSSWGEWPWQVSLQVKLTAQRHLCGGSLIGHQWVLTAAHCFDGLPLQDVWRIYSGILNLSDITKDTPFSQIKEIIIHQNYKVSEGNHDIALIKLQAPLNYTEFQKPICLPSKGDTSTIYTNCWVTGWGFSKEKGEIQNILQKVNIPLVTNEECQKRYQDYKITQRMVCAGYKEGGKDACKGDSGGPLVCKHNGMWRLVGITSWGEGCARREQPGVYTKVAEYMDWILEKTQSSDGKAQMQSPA
T1 sequence (P03952 20-390 partner limits assumed): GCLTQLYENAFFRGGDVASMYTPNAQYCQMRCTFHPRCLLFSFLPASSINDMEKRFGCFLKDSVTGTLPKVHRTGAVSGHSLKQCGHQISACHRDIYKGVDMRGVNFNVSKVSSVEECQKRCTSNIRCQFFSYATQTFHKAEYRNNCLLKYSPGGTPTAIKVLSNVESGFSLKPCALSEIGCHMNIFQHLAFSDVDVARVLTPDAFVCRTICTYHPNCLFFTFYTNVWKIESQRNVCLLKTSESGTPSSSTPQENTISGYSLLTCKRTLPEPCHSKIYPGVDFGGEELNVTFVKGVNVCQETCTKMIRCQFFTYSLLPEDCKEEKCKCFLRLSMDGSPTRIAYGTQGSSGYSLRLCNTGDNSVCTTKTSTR
Chain of plasma kallikrein (PKa) (P03952 391-638 limits assumed): as the sequence (P03952 391-638 limits assumed) above
Chain of plasma kallikrein (PKa) (P03952 20-390 partner limits assumed): as the sequence (P03952 20-390 partner limits assumed) above

Row | IC50 [4, 14] [nM] | IC50 [6, 15] [µM] | IC50 [6, 16] [µM] | IC50 [6, 17] [µM] | IC50 ([7]; 1 min preincubation) [µM] | IC50 ([7]; 10 min preincubation) [µM] | IC50 ([7]; 60 min preincubation) [µM] | IC50 [8] [µM] | IC50 [8, 18] [µM] | IC50 [8, 19] [µM] | IC50 [4, 20] [nM] | IC50 [4, 21] [nM] | Molecule | other results
1 | 1.9 | – | – | – | – | – | – | – | – | – | 94 | 17 | Cc1ccc(C(NC(=O)c2cnn(Cc3ccc(Cn4ccccc4=O)cc3)c2)B2OC(C)(C)C(C)(C)O2)c(F)c1 (centres unmarked) [Compound 21] | –
2 | > 40000 | > 40 | > 40 | > 40 | > 40 | > 40 | > 40 | > 40 | > 40 | > 40 | > 40000 | > 40000 | O=C(NCc1cccc(Cl)c1)c1cnn(Cc2ccc(Cn3cccn3)cc2)c1 [Compound 24] | Inhibitor dissociation from PKa [9]: rapid dissociation; Inhibition of PKa (in words) [4]: no PKa inhibition; IC50 ([10]; 1 min preincubation): > 40 µM; IC50 ([10]; 10 min preincubation): > 40 µM; IC50 ([10]; 60 min preincubation): > 40 µM
3 | 278 | – | – | – | – | – | – | – | – | – | 270 | 284 | O=C(NCc1cccc(Cl)c1)c1cnn(Cc2ccc(Cn3ccccc3=O)cc2)c1 [Compound 25] | –
4 | 35 | – | – | – | – | – | – | – | – | – | 37 | 37 | Cc1ccc(CNC(=O)c2cnn(Cc3ccc(Cn4ccccc4=O)cc3)c2)c(F)c1 [Compound 27] | –
5 | – | > 40 | > 40 | > 40 | > 40 | > 40 | > 40 | > 40 | > 40 | > 40 | – | – | Cc1ccc(C(CC(=O)c2cnn(Cc3ccc(Cn4cccn4)cc3)c2)B2OC(C)(C)C(C)(C)O2)c(F)c1 (centres unmarked) [Compound 32] | –

Further lines, the molecule ahead of its results:

Row | Molecule | IC50 [4, 14] [nM] | IC50 [6, 15] [µM] | IC50 [6, 16] [µM] | IC50 [6, 17] [µM] | IC50 ([7]; 1 min preincubation) [µM] | IC50 ([7]; 10 min preincubation) [µM] | IC50 ([7]; 60 min preincubation) [µM] | IC50 [8] [µM] | IC50 [8, 18] [µM] | IC50 [8, 19] [µM] | IC50 [4, 20] [nM] | IC50 [4, 21] [nM] | other results
6 | Cc1cc(N)nc(C)c1CNC(=O)c1cnn(Cc2ccc(Cn3cccn3)cc2)c1 [Compound 11] | – | – | – | – | – | – | – | – | – | – | – | – | IC50 [1]: 0.002 µM
7 | CC1(C)OB(C(N)c2cccc(Cl)c2)OC1(C)C.Cl (centres unmarked) [Compound 15a] | > 400000 | – | – | – | – | – | – | – | – | – | – | – | IC50 ([2]; 5 min preincubation): > 400 µM; IC50 ([2]; 60 min preincubation): > 400 µM; Stability in DMSO / aqueous media [3]: unstable over time in DMSO; Inhibition of PKa (in words) [4]: no activity; IC50 [4, 13]: > 400000 nM
8 | CC1(C)OB(C(NC(=O)c2cnn(Cc3ccccc3)c2)c2cccc(Cl)c2)OC1(C)C (centres unmarked) [Compound 17a] | – | – | – | – | – | – | – | – | – | – | – | – | IC50 ([2]; 5 min preincubation): > 400 µM; IC50 ([2]; 60 min preincubation): > 400 µM
9 | Cc1ccc(C(NC(=O)c2cnn(Cc3ccccc3)c2)B2OC(C)(C)C(C)(C)O2)c(F)c1 (centres unmarked) [Compound 17b] | – | – | – | – | – | – | – | – | – | – | – | – | IC50 ([2]; 5 min preincubation): > 400 µM; IC50 ([2]; 60 min preincubation): > 400 µM; Stability of the pinacol boronate in PBS buffer by NMR [5]: rapidly hydrolyzed
10 | O=C(NC(B(O)O)c1cccc(Cl)c1)c1cnn(Cc2ccccc2)c1 (centres unmarked) [Compound 18] | > 400000 | – | – | – | – | – | – | – | – | – | – | – | IC50 ([2]; 5 min preincubation): > 400 µM; IC50 ([2]; 60 min preincubation): > 400 µM; Inhibition of FXIIa activity (in words) [2]: no activity; Stability in DMSO / aqueous media [3]: instability in DMSO and aqueous media; Inhibition of PKa (in words) [4]: no activity; IC50 [4, 13]: > 400000 nM
11 | CC1(C)OB(C(NC(=O)c2cnn(Cc3ccc(Cn4cccn4)cc3)c2)c2cccc(Cl)c2)OC1(C)C (centres unmarked) [Compound 19] | – | > 40 | > 40 | > 40 | > 40 | > 40 | > 40 | > 40 | > 40 | > 40 | – | – | –
12 | Cc1ccc(C(NC(=O)c2cnn(Cc3ccc(Cn4cccn4)cc3)c2)B2OC(C)(C)C(C)(C)O2)c(F)c1 (centres unmarked) [Compound 20] | 0.3 | 22 | 19.8 | 12.1 | 18.8 | 16.5 | 12.2 | > 40 | > 40 | > 40 | 66 | 6.9 | Inhibitor dissociation from PKa [9]: no apparent reversibility; Inhibition of FXIIa activity (in words) [2]: no effect; IC50 [4]: 0.33 nM; IC50 ([4]; read-out: PKa IC50, 2 h, extended time course): 0.29 nM; IC50 ([4]; read-out: PKa IC50, 24 h): 0.07 nM; IC50 ([10]; 1 min preincubation): > 40 µM; IC50 ([10]; 10 min preincubation): > 40 µM; IC50 ([10]; 60 min preincubation): > 40 µM
13 | Cc1ccc(CNC(=O)c2cnn(Cc3ccc(Cn4cccn4)cc3)c2)c(F)c1 [Compound 26] | 196 | > 40 | > 40 | > 40 | > 40 | > 40 | > 40 | > 40 | > 40 | > 40 | 199 | 203 | Inhibitor dissociation from PKa [9]: rapid dissociation; IC50 ([10]; 1 min preincubation): > 40 µM; IC50 ([10]; 10 min preincubation): > 40 µM; IC50 ([10]; 60 min preincubation): > 40 µM
14 | O=C(/C=C/c1cccc(Cl)c1)c1cnn(Cc2ccc(Cn3cccn3)cc2)c1 [Compound 29] | > 40000 | – | – | – | – | – | – | – | – | – | > 40000 | > 40000 | –
15 | CC1(C)OB(C(CC(=O)c2cnn(Cc3ccc(Cn4cccn4)cc3)c2)c2cccc(Cl)c2)OC1(C)C (centres unmarked) [Compound 31] | – | > 40 | > 40 | > 40 | > 40 | > 40 | > 40 | > 40 | > 40 | > 40 | – | – | –
16 | N#Cc1ccc(Oc2ccc3c(c2)COB3O)cc1 [Crisaborole] | – | – | – | – | – | – | – | – | – | – | – | – | IC50 [11]: 0.49 µM
17 | N#Cc1cccc([C@@H](NCC2CC2)c2ccc(F)c(NC(=O)c3cc(C(F)(F)F)nn3-c3cccc(CN)c3)c2)c1 [berotralstat] | – | – | – | – | – | – | – | – | – | – | – | – | Efficacy as an oral prophylactic for HAE [12]: efficacious
18 | D-Phe-Pro-Arg-chloromethylketone [Compound 23, reference compound] | – | – | – | – | > 40 | > 40 | > 40 | – | – | – | – | – | IC50 ([6]; read-out: Plasmin IC50, 1 min preincubation): 3.64 µM; IC50 ([6]; read-out: Plasmin IC50, 10 min preincubation): 1.22 µM; IC50 ([6]; read-out: Plasmin IC50, 60 min preincubation): 0.248 µM
